According to the NIST ThermoML archive (doi:10.1021/je0501843):

Assay: wn = mass fraction of the nth substance listed
Settings: Fluid (supercritical or subcritical phases), isochoric method, w1 = 0.5001

FC(F)C(F)(F)F [pentafluoroethane] + FCF
Settings | mass density [kg/m3]
301 K, 4414 kPa | 1071.2
302 K, 4977 kPa | 1071
303 K, 5537 kPa | 1070.9
303 K, 5540 kPa | 1070.9
304 K, 6101 kPa | 1070.8
304 K, 6103 kPa | 1070.8
305 K, 6663 kPa | 1070.6
306 K, 7227 kPa | 1070.5
306 K, 7228 kPa | 1070.5
307 K, 7791 kPa | 1070.4
307 K, 7792 kPa | 1070.4
308 K, 8356 kPa | 1070.2
308 K, 8357 kPa | 1070.2
309 K, 8918 kPa | 1070.1
310 K, 9482 kPa | 1070
310 K, 9484 kPa | 1070
311 K, 10048 kPa | 1069.8
311 K, 10049 kPa | 1069.8
312 K, 10614 kPa | 1069.7
312 K, 10615 kPa | 1069.7
313 K, 11178 kPa | 1069.6
313 K, 11179 kPa | 1069.6
314 K, 11741 kPa | 1069.4
314 K, 11743 kPa | 1069.4
315 K, 12309 kPa | 1069.3
316 K, 12875 kPa | 1069.2
316 K, 12877 kPa | 1069.2
317 K, 13440 kPa | 1069
318 K, 14003 kPa | 1068.9
318 K, 14005 kPa | 1068.9
319 K, 14570 kPa | 1068.8
319 K, 14571 kPa | 1068.8
320 K, 15135 kPa | 1068.6
320 K, 15137 kPa | 1068.6
321 K, 15700 kPa | 1068.5
321 K, 15701 kPa | 1068.5
322 K, 16263 kPa | 1068.4
322 K, 16265 kPa | 1068.4
323 K, 16830 kPa | 1068.2
324 K, 17394 kPa | 1068.1
324 K, 17396 kPa | 1068.1
325 K, 5448 kPa | 946.2
325 K, 17959 kPa | 1068
325 K, 17961 kPa | 1068
326 K, 5835 kPa | 946.1
326 K, 5836 kPa | 946.1
326 K, 18524 kPa | 1067.8
326 K, 18525 kPa | 1067.8
327 K, 6224 kPa | 946
327 K, 6225 kPa | 946
327 K, 19088 kPa | 1067.7
327 K, 19090 kPa | 1067.7
328 K, 6615 kPa | 945.9
328 K, 6616 kPa | 945.9
328 K, 19652 kPa | 1067.6
328 K, 19655 kPa | 1067.6
329 K, 7006 kPa | 945.8
329 K, 7007 kPa | 945.8
330 K, 7397 kPa | 945.7
330 K, 7399 kPa | 945.7
331 K, 7788 kPa | 945.6
331 K, 7790 kPa | 945.6
332 K, 8183 kPa | 945.5
332 K, 8184 kPa | 945.5
333 K, 8579 kPa | 945.4
334 K, 8970 kPa | 945.4
334 K, 8971 kPa | 945.4
335 K, 9364 kPa | 945.3
336 K, 9759 kPa | 945.2
337 K, 10156 kPa | 945.1
337 K, 10157 kPa | 945.1
338 K, 6179 kPa | 859.9
338 K, 10552 kPa | 945
338 K, 10553 kPa | 945
339 K, 6478 kPa | 859.9
339 K, 10948 kPa | 944.9
340 K, 6782 kPa | 859.8
340 K, 11344 kPa | 944.8
340 K, 11346 kPa | 944.8
341 K, 7089 kPa | 859.7
341 K, 11743 kPa | 944.7
341 K, 11745 kPa | 944.7
342 K, 7389 kPa | 859.6
342 K, 12139 kPa | 944.6
342 K, 12142 kPa | 944.6
343 K, 7693 kPa | 859.6
343 K, 12536 kPa | 944.5
343 K, 12538 kPa | 944.5
344 K, 7998 kPa | 859.5
344 K, 12935 kPa | 944.4
344 K, 12936 kPa | 944.4
345 K, 8306 kPa | 859.4
345 K, 13334 kPa | 944.3
346 K, 8612 kPa | 859.3
346 K, 13733 kPa | 944.2
347 K, 6281 kPa | 761.1
347 K, 8917 kPa | 859.3
347 K, 14131 kPa | 944.1
